Structures can show the parent of a compound that is named as a salt.
Experiments:
[1] = Bioavailability in multiple species; details: in vivo, oral
[2] = Phase 1 study: plasma pharmacokinetics, non-compartmental analysis; assay type: in vivo, human
Experimental: Pharmacokinetics: The concentration—time curves of TG101348 in plasma were evaluated by a non-compartmental analysis (with the use of WinNonlin® software, version 5.2).

[3] = mean, 240 mg/day (n=3), Cycle 1 Day 28
[4] = mean, 360 mg/day (n=3), Cycle 1 Day 28
[5] = mean, 800 mg/day (n=5), Cycle 1 Day 28

For Cc1cnc(Nc2ccc(OCCN3CCCC3)cc2)nc1Nc1cccc(S(=O)(=O)NC(C)(C)C)c1 [TG101348, N-tert-butyl-3-[(5-methyl-2-{[4-(2-pyrrolidin-1-ylethoxy)phenyl]amino}pyrimidin-4-yl)amino]benzenesulfonamide dihydrochloride monohydrate], the bioavailability [1] was 20 to 25%, the “plasma concentration over at least 24 hours after the dose” value ([2]; 360 mg/day, Cycle 1 Day 28) was “above IC90” and the “plasma concentration over at least 24 hours after the dose” value ([2]; 520 mg/day, Cycle 1 Day 28) was “above 3×IC90”. The “increase of mean steady-state AUC0-t over a 27-fold increase in dose” value ([2]; in vivo) was about 88 fold, the “increase of mean steady-state C. over a 27-fold increase in dose” value ([2]; in vivo) was “approximately 54 fold” and the “λz (elimination rate constant)” value ([2]; mean, 30 mg/day (n=3), Cycle 1 Day 28) was 0.0354 h⁻¹. For the same molecule, the “λz (elimination rate constant)” value ([2]; mean, 60 mg/day (n=3), Cycle 1 Day 28) was 0.0456 h⁻¹, the “λz (elimination rate constant)” value ([2]; mean, 120 mg/day (n=3), Cycle 1 Day 28) was 0.0305 h⁻¹ and the “T1/2 (terminal half-life)” value [2, 3] was 20.77 h. For the same molecule, the “λz (elimination rate constant)” value [2, 3] was 0.0352 h⁻¹, the Cmax [2, 4] was 1717.33 ng/mL and the “T1/2 (terminal half-life)” value [2, 4] was 21.39 h. The “λz (elimination rate constant)” value [2, 4] was 0.0353 h⁻¹, the “λz (elimination rate constant)” value ([2]; mean, 520 mg/day (n=3), Cycle 1 Day 28) was 0.0343 h⁻¹ and the “λz (elimination rate constant)” value ([2]; mean, 680 mg/day (n=27), Cycle 1 Day 28) was 0.0301 h⁻¹. For the same molecule, the “T1/2 (terminal half-life)” value [2, 5] was 23.99 h and the “λz (elimination rate constant)” value [2, 5] was 0.0331 h⁻¹.
